Data reported in patent US4425356A, “Lankacidin derivatives used in swine husbandry” (Takeda Chemical Industries, Ltd., priority 1980, dated 1984).
≈ marks a conversion by molar mass, not a printed value. Where “and” joins values, the source holds several entries; their conditions need not be identical. Equal entries are not always repeated. Entries after “also recorded” stand apart in the source; their conditions may differ. Where two headings read alike, the source gives them in different places.

How the values were obtained:
[1] = system: Treponema hyodysenteriae; test: in vitro antibacterial activity (MIC, agar dilution method), Test Examples 1-3; format: cell-based
Procedure, shortened: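 MICs were found by agar dilution against field isolates from bloody mucous faeces of dysenteric pigs in Japan. The inoculum was a loopful of 10^6 CFU/ml suspension. Plates were incubated anaerobically (GasPak) at 37 °C.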

[2] = system: Treponema hyodysenteriae; test: efficacy in experimental infection in mice with swine dysentery, Test Example 4; format: in vivo; details: 5 mg/kg/day oral, day 1 to day 4; seven days after infection
Procedure: Lankacidin A, lankacidin C, lankacidin C 8-acetate, lankacidin C 14-propionate, lankacidinol A and lankacidinol were tested for efficacy against swine dysentery in experimental infection in mice with swine dysentery.
The similar experimental infection model of swine dysentery in mice as that described, for example, by Joens et al. in Infection and Immunity, 25, 757-760 (1979), American Journal of Veterinary Research, 41, 1225-1226 (1980) and Veterinary Record, 107, 527-529 (1980) was used. Thus, a field isolate of Treponema hyodysenteriae anaerobically cultivated on the 5% defibrinated horse blood added Trypticase soy agar (BBL) plate was mashed together with the culture medium and diluted two-fold with Trypticase soy broth (BBL). Mice were inoculated intragastrically with this infecting dilution. Each test agent was suspended in 5% gum arabic solution and forcibly administered orally from day 1 to day 4 following infection. Seven days after infection, the cecum was examined for lesions, and the cecum was mashed together with the contents and subjected to Treponema hyodysenteriae counting. Excellent efficacy was produced in each of the drug-administered groups.

[3] = system: Treponema hyodysenteriae 78/A strain; test: efficacy against swine dysentery under experimental infection conditions in pigs (drug in feed), Test Examples 5-7; format: in vivo, Landrace pigs; details: for Number of days on which diarrhea was observed / Number of days on which mucous bloody stool was observed / Number of pigs showing signs of infection/number of pigs used: 21-day test period; for Body weight gain / Feed conversion / Feed intake: 21 day period; for Body weight gain / Feed conversion / Feed intake / Body weight at the time of completion of test: mean per head
Procedure, shortened: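 Landrace pigs, 4 per group, fed starter feed with drug admixed (100 ppm or lower; 10 ppm for lankacidin A and C 14-propionate) ad libitum; infected at 7 weeks after 24 h fast by 100 ml intragastric inoculum of two-fold diluted colonic contents/mucosa from 78/A-infected pigs. Fed 21 days post-infection; per-head means to autopsy.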

[4] = acute toxicity tests with mice; details: mouse, in vivo
Excerpt: The toxicity of compound (I) in animals is very low.

[5] = system: Treponema hyodysenteriae 78/A strain; test: therapeutic administration in pigs showing clinical signs of swine dysentery, Test Examples 8-9; format: in vivo; details: for No. of pathogen (in feces) / Condition of feces: individual pig
Procedure: This test was conducted under the conditions of so-called therapeutic administration. […] The method of infection was the same as in Test Example 5. […] Simultaneously with showing of the signs, the pigs were provided with a feed containing 50 ppm of lankacidin C. […] After 2 days, the viable count for the pathogen in feces was below the detection limit (10^2 CFU/g).
The condition of feces was rated at one of the following four classes:
.circle. normal; loose; diarrheal; .circleincircle. mucous and bloody
count is below the detection limit (10^2 CFU/g).
The symbol * indicates those days on which the feed containing 50 ppm of
lankacidin C was given.
Lankacidins were tested for therapeutic effects in swine dysentery under therapeutic conditions in the same manner as in Test Example 8. The effects were judged based on the condition of feces.
The condition of feces was rated at one of the following four classes;
The symbol * indicates the days on which the feed containing 50 ppm of th

[6] = 50 ppm in feed, autopsy 15 days after manifestation of signs

CC(=O)C(=O)NC1C=C(C)C=CC(O)CC=C(C)C=CC(O)CC2OC(=O)C1(C)C(=O)C2C (stereo not shown) [Lankacidin C, lankacidin C]
MIC ([1]; Brachyspira hyodysenteriae, 48 h, read-out: Minimum Inhibitory Concentration, strain DJ70P1, 37° C., 2 days, anaerobic): 3.13 µg/mL (≈ 6.81 µM)
in vitro antibacterial activity (in words) ([1]; against Treponema hyodysenteriae): strong antibacterial activity
Number of mice from which the pathogen was detected/number of mice tested [2]: 1/5
Number of mice with cecal lesions/number of mice tested [2]: 0/5
Number of pigs from which the pathogen was detected, in colonic mucosa ([3]; 10 ppm in feed): 0
Number of pigs from which the pathogen was detected, in feces ([3]; 10 ppm in feed): 0
Number of pigs showing colonic lesions ([3]; 10 ppm in feed): 0
Number of days on which diarrhea was observed ([3]; 10 ppm in feed): 0 days
Number of days on which mucous bloody stool was observed ([3]; 10 ppm in feed): 0 days
Number of pigs showing signs of infection/number of pigs used ([3]; 10 ppm in feed): 0/4
Body weight gain ([3]; 10 ppm in feed): 484 grams/day
Feed conversion ([3]; 10 ppm in feed): 1.81
Feed intake ([3]; 10 ppm in feed): 18.4 kg
Body weight at the time of completion of test ([3]; 10 ppm in feed): 20.7 kg
Number of pigs from which the pathogen was detected, in colonic mucosa ([3]; 50 ppm in feed): 0
Number of pigs from which the pathogen was detected, in feces ([3]; 50 ppm in feed): 0
Number of pigs showing colonic lesions ([3]; 50 ppm in feed): 0
Number of days on which diarrhea was observed ([3]; 50 ppm in feed): 0 days
Number of days on which mucous bloody stool was observed ([3]; 50 ppm in feed): 0 days
Number of pigs showing signs of infection/number of pigs used ([3]; 50 ppm in feed): 0/4
Body weight gain ([3]; 50 ppm in feed): 673 grams/day
Feed conversion ([3]; 50 ppm in feed): 1.79
Feed intake ([3]; 50 ppm in feed): 25.3 kg
Body weight at the time of completion of test ([3]; 50 ppm in feed): 25.3 kg
Number of pigs from which the pathogen was detected, in colonic mucosa ([3]; 100 ppm in feed): 0
Number of pigs from which the pathogen was detected, in feces ([3]; 100 ppm in feed): 0
Number of pigs showing colonic lesions ([3]; 100 ppm in feed): 0
Number of days on which diarrhea was observed ([3]; 100 ppm in feed): 0 days
Number of days on which mucous bloody stool was observed ([3]; 100 ppm in feed): 0 days
Number of pigs showing signs of infection/number of pigs used ([3]; 100 ppm in feed): 0/4
Body weight gain ([3]; 100 ppm in feed): 708 grams/day and 689 grams/day
Feed conversion ([3]; 100 ppm in feed): 1.85 and 1.77
Feed intake ([3]; 100 ppm in feed): 27.5 kg and 25.6 kg
Body weight at the time of completion of test ([3]; 100 ppm in feed): 28.5 kg and 25.5 kg
effect against swine dysentery (in words) ([3]; pig, in vivo): excellent effect against swine dysentery; also recorded: more excellent anti-swine-dysentery agent than carbadox
LD50 ([4]; ip, intraperitoneal, read-out: intraperitoneal LD50): 4500 mg/kg
LD50 ([4]; oral, read-out: oral LD50): > 10000 mg/kg
therapeutic effect in swine dysentery (in words) ([5]; 50 ppm in feed): therapeutically effective
viable count for the pathogen in feces ([5]; 50 ppm in feed, after 2 days): < 10^2 CFU/g
colonic lesions (autopsy) [5, 6]: negative
pathogen at autopsy (in words) [5, 6]: without the pathogen being detected
colonic lesions (autopsy) ([5]; 50 ppm in feed, autopsy 15 days after manifestation of signs, listed as lankacidin C): no colonic lesions
No. of pathogen (in feces) ([5]; 50 ppm in feed, day 0): 8.0 log/g and 6.0 log/g and 7.1 log/g and 6.8 log/g
No. of pathogen (in feces) ([5]; 50 ppm in feed, day 1): 4.3 log/g and 2.3 log/g and 4.4 log/g and 2.0 log/g
mucous bloody diarrhea / passage (in words) ([5]; 50 ppm in feed, day following the administration): mucous bloody diarrhea was no more observed on the day following the administration but the passage was loose or normal
Condition of feces ([5]; Table 8, 50 ppm in feed days 0-6, day 7): .circle.
Condition of feces ([5]; Table 8, 50 ppm in feed days 0-6, day 8): .circle.
Condition of feces ([5]; Table 8, 50 ppm in feed days 0-6, day 9): .circle.
Condition of feces ([5]; Table 8, 50 ppm in feed days 0-6, day 10): .circle.
Condition of feces ([5]; Table 8, 50 ppm in feed days 0-6, day 11): .circle.
Condition of feces ([5]; Table 8, 50 ppm in feed days 0-6, day 12): .circle.
Condition of feces ([5]; Table 8, 50 ppm in feed days 0-6, day 13): .circle.
Condition of feces ([5]; Table 8, 50 ppm in feed days 0-6, day 14): .circle.
Condition of feces ([5]; Table 8, 50 ppm in feed days 0-6, day 15): .circle.
Condition of feces ([5]; Table 8, 50 ppm in feed, day 0 after manifestation of signs): .circleincircle.
Condition of feces ([5]; Table 8, 50 ppm in feed, day 1): .circle.
Condition of feces ([5]; Table 8, 50 ppm in feed, day 2): .circle.
Condition of feces ([5]; Table 8, 50 ppm in feed, day 3): .circle.
Condition of feces ([5]; Table 8, 50 ppm in feed, day 4): .circle.
Condition of feces ([5]; Table 8, 50 ppm in feed, day 5): .circle.
Condition of feces ([5]; Table 8, 50 ppm in feed, day 6): .circle.
Condition of feces ([5]; Table 9, 50 ppm in feed, day 0 after manifestation of signs): .circleincircle.
Condition of feces ([5]; Table 9, 50 ppm in feed, day 1): .circle.
Condition of feces ([5]; Table 9, 50 ppm in feed, day 2): .circle.
Condition of feces ([5]; Table 9, 50 ppm in feed, day 3): .circle.
Condition of feces ([5]; Table 9, 50 ppm in feed, day 4): .circle.
Condition of feces ([5]; Table 9, 50 ppm in feed, day 5): .circle.
